The text below walks through data of US9045445B2, “Glycine transporter-1 inhibitors, methods of making them, and uses thereof” (Albany Molecular Research, Inc., priority 2010, dated 2015).

Where a name gives a salt, the structure may show the parent alone.

For the experiment, the target named is T1, glycine transporter-1 (GlyT-1) (Homo sapiens, UniProt P48067).
T1 construct: JAR cells (ATCC#HTB-144), which endogenously express GlyT-1; host or cells: JAR human choriocarcinoma cells
T1 sequence (P48067 1-706): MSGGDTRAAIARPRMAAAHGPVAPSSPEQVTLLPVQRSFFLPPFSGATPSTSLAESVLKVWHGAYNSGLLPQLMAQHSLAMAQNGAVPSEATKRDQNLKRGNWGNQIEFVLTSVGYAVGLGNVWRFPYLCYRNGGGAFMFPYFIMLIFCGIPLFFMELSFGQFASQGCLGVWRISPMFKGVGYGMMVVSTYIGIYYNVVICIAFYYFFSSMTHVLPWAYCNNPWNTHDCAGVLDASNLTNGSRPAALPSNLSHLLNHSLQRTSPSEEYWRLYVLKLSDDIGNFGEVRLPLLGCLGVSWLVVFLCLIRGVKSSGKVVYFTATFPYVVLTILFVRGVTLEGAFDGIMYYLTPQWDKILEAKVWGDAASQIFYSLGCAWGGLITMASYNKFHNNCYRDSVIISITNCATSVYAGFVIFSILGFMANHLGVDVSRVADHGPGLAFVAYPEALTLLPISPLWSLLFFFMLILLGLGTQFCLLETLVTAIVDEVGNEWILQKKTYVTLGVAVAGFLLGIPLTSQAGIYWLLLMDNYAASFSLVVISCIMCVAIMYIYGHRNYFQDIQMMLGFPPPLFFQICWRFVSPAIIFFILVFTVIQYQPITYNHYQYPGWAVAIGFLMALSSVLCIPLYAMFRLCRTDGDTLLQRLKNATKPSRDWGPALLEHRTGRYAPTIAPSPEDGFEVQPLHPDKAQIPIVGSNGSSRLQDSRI
The experiment is described as follows: [14C]glycine uptake assay in JAR cells endogenously expressing GlyT-1 (scintillation proximity). The note with it: JAR cells, [14C]glycine 5 μM, 3 hour incubation; read-out: GlyT-1 IC50. The class given is cell-based. A digest of the protocol:
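IC50 comes from a four-parameter fit of nine-point, duplicate curves measuring inhibition of 5 μM [14C]glycine uptake, read by scintillation proximity after 3 h at 37 °C. Cells are human JAR, which express GlyT-1 endogenously, given 10 min compound pre-treatment in pH 7.4 buffer with 5 mM alanine and 0.75% DMSO.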
On the technique in general: Scintillation proximity formats need no separation of bound from free tracer.
For `COc1ccccc1C(=O)NCC1(N2CCN(S(=O)(=O)c3cn(C)cn3)CC2)CCC(F)(F)CC1` [compound 177, N-((4,4-Difluoro-1-(4-(1-methyl-1H-imidazol-4-ylsulfonyl)piperazin-1-yl)cyclohexyl)methyl)-2-methoxybenzamide Hydrochloride], the IC50 was 34 nM.

As for `Cc1cccc(F)c1C(=O)NCC1(N2CCN(S(=O)(=O)c3cn(C)cn3)CC2)CCC(F)(F)CC1` [compound 182, N-((4,4-Difluoro-1-(4-(1-methyl-1H-imidazol-4-ylsulfonyl)piperazin-1-yl)cyclohexyl)methyl)-2-fluoro-6-methylbenzamide Hydrochloride], the IC50 is 6 nM.

Take `Cn1cnc(S(=O)(=O)N2CCN(C3(CNC(=O)c4ccccc4OC(F)F)CCC(F)(F)CC3)CC2)c1` [compound 183, N-((4,4-Difluoro-1-(4-(1-methyl-1H-imidazol-4-ylsulfonyl)piperazin-1-yl)cyclohexyl)methyl)-2-(difluoromethoxy) benzamide Hydrochloride]: the IC50 came out at 5 nM.

Take `Cn1cc(S(=O)(=O)N2CCN(C3(CNC(=O)c4ccc(C(F)(F)F)cc4C(F)(F)F)CCCC3)CC2)nn1` [compound 275, N-((1-(4-(1-Methyl-1H-1,2,3-triazol-4-ylsulfonyl)piperazin-1-yl)cyclopentyl)methyl)-2,4-bis(trifluoromethyl) benzamide Hydrochloride]: the IC50 was 7 nM.

With `CCCS(=O)(=O)N1CCN(C2(CNC(=O)c3ccc(C(C)C)cc3)CCCCC2)CC1` [compound 33, 4-Isopropyl-N-((1-(4-(propylsulfonyl)piperazin-1-yl)cyclohexyl)methyl) benzamide Hydrochloride], the IC50 worked out at 488 nM.

For the molecule `CCCS(=O)(=O)N1CCN(C2(CNC(=O)c3c(F)cccc3Cl)CCC(F)(F)CC2)CC1` [compound 156, 2-Chloro-N-((4,4-difluoro-1-(4-(propylsulfonyl)piperazin-1-yl)cyclohexyl)methyl)-6-fluorobenzamide Hydrochloride], the IC50 amounted to 43 nM.

Turning to `CCCS(=O)(=O)N1CCN(C2(C(C)NC(=O)c3c(F)cccc3F)CCC(F)(F)CC2)CC1` (stereo not shown) [compound 197, N-(1-(4,4-Difluoro-1-(4-(propylsulfonyl)piperazin-1-yl)cyclohexyl)ethyl)-2,6-difluorobenzamide Hydrochloride], the IC50 was determined as 304 nM.

As to `CCS(=O)(=O)N1CCN(C2(CNC(=O)c3c(F)cc(Cl)cc3F)CCC(F)(F)CC2)CC1` [compound 208, 4-Chloro-N-((1-(4-(ethylsulfonyl)piperazin-1-yl)-4,4-difluoro-cyclohexyl)methyl)-2,6-difluorobenzamide Hydrochloride], the IC50 worked out at 137 nM.

As for `CCCS(=O)(=O)N1CCN(C2(CNC(=O)c3c(Cl)cccc3C(F)(F)F)CCC(F)(F)CC2)CC1` [compound 157, 2-Chloro-N-((4,4-difluoro-1-(4-(propylsulfonyl)piperazin-1-yl)cyclohexyl)methyl)-6-(trifluoromethyl)benz-amide Hydrochloride], the IC50 amounted to 59 nM.

As for `CCS(=O)(=O)N1CCN(C2(CNC(=O)c3c(Cl)cc(C(F)(F)F)cc3C(F)(F)F)CCC(F)(F)CC2)CC1` [compound 206, 2-Chloro-N-((1-(4-(ethylsulfonyl)piperazin-1-yl)-4,4-difluorocyclohexyl)methyl)-4,6-bis(trifluoromethyl) benzamide Hydrochloride], the half-maximal inhibitory concentration (IC50) amounted to 83 nM.

Regarding `CCCS(=O)(=O)N1CCN(C2(CNC(=O)c3ccccc3OC)CCCCC2)CC1` [compound 40, 2-Methoxy-N-((1-(4-(propylsulfonyl)piperazin-1-yl)cyclohexyl)methyl) benzamide Hydrochloride], the IC50 is 629 nM.

For the molecule `CCS(=O)(=O)N1CCN(C2(CNC(=O)c3c(Cl)ccc(C(F)(F)F)c3Cl)CCC(F)(F)CC2)CC1` [compound 215, 2,6-Dichloro-N-((1-(4-(ethylsulfonyl)piperazin-1-yl)-4,4-difluorocyclohexyl)methyl)-3-(trifluoromethyl) benzamide Hydrochloride], the IC50 stood at 2460 nM.

`Cn1cnc(S(=O)(=O)N2CCN(C3(CNC(=O)c4c(Cl)cccc4OC(F)(F)F)CCC(F)(F)CC3)CC2)c1` [compound 187, 2-Chloro-N-((4,4-difluoro-1-(4-(1-methyl-1H-imidazol-4-ylsulfonyl)piperazin-1-yl)cyclohexyl)methyl)-6-(trifluoromethoxy) benzamide Hydrochloride]: the IC50 was found to be 1 nM.

`CCCS(=O)(=O)N1CCN(C2(CNC(=O)c3ccc(Cl)c(Cl)c3)CCCC2)CC1` [compound 76, 3,4-Dichloro-N-((1-(4-(propylsulfonyl)piperazin-1-yl)cyclopentyl)methyl) benzamide Hydrochloride]: the IC50 was determined as 1820 nM.

As to `CCCS(=O)(=O)N1CCN(C2(CNC(=O)c3c(F)cccc3F)CCCOCC2)CC1` (stereo not shown) [compound 268, 2,6-Difluoro-N-((4-(4-(propylsulfonyl)piperazin-1-yl)oxepan-4-yl)methyl)benzamide Hydrochloride], the IC50 is 238 nM.

For the molecule `CCCS(=O)(=O)N1CCN(C2(CNC(=O)c3ccccc3OC(F)F)CCC(F)(F)CC2)CC1` [compound 142, N-((4,4-Difluoro-1-(4-(propylsulfonyl)piperazin-1-yl)cyclohexyl)methyl)-2-(difluoromethoxy) benzamide Hydrochloride], the IC50 was found to be 158 nM.

As for `CCCS(=O)(=O)N1CCN(C2(CNC(=O)c3ccc(C)c(C)c3)CCCCC2)CC1` [compound 35, 3,4-Dimethyl-N-((1-(4-(propylsulfonyl)piperazin-1-yl)cyclohexyl)methyl) benzamide Hydrochloride], the IC50 amounted to 1070 nM.

On to `Cn1cnc(S(=O)(=O)N2CCN(C3(CNC(=O)c4ccc(Cl)cc4F)CCC(F)(F)CC3)CC2)c1` [compound 165, 4-Chloro-N-((4,4-difluoro-1-(4-(1-methyl-1H-imidazol-4-ylsulfonyl)piperazin-1-yl)cyclohexyl)methyl)-2-fluorobenzamide Hydrochloride], for which the IC50 came to 29 nM.

As for `CCCS(=O)(=O)N1CCN(C2(CNC(=O)c3c(C)cccc3OC)CCCCC2)CC1` [compound 3, 2-Methoxy-6-methyl-N-((1-(4-(propylsulfonyl)piperazin-1-yl)cyclohexyl)methyl) benzamide Hydrochloride], the 50% inhibitory concentration (IC50) was determined as 541 nM.

Consider `CCS(=O)(=O)N1CCN(C2(CNC(=O)c3cc(F)c(Cl)cc3Cl)CCC(F)(F)CC2)CC1` [compound 212, 2,4-Dichloro-N-((1-(4-(ethylsulfonyl)piperazin-1-yl)-4,4-difluorocyclohexyl)methyl)-5-fluorobenzamide Hydrochloride], for which the IC50 turned out to be 209 nM.

For the molecule `CN(C)S(=O)(=O)N1CCN(C2(CNC(=O)c3ccc(C(F)(F)F)cc3Cl)CCC(F)(F)CC2)CC1` [compound 273, 2-Chloro-N-((1-(4-(N,N-dimethylsulfamoyl)piperazin-1-yl)-4,4-difluorocyclohexyl)methyl)-4-(trifluoromethyl)benzamide Hydrochloride], the IC50 was 350 nM.

For the molecule `CCCS(=O)(=O)N1CCN(C2(CNC(=O)c3ccc(Cl)c(Cl)c3)CCCCC2)CC1` [compound 26, 3,4-Dichloro-N-((1-(4-(propylsulfonyl)piperazin-1-yl)cyclohexyl)methyl) benzamide Hydrochloride], the IC50 was 245 nM.

What is called IC50 is the point on the concentration scale where inhibition reaches its midpoint.
